# Data published in ChEMBL document CHEMBL1124484, “Effects of 8-phenyl and 8-cycloalkyl substituents on the activity of mono-, di-, and trisubstituted alkylxanthines with substitution at the 1-, 3-, and 7-positions” (J Med Chem, 1989).
# Experiments:
# Adenosine A2 receptor [1] = molecular target: Adenosine A2 receptor (Homo sapiens, UniProt P29275+P29274)
# Description: Inhibition of the stimulation by 5'-(N-ethylcarbamoyl) adenosine of adenyl cyclase via adenosine A2 receptor in human platelet membranes.
# Adenosine receptor A1 [2] = molecular target: T1, Adenosine receptor A1 (Rattus norvegicus, UniProt P25099); assay: Inhibition of 1 nM [3H]- N6-(phenylisopropyl) adenosine binding to Adenosine A1 receptor in rat cerebral cortical membranes; format: cell membranes, Membrane
# T1 sequence (P25099 whole entry): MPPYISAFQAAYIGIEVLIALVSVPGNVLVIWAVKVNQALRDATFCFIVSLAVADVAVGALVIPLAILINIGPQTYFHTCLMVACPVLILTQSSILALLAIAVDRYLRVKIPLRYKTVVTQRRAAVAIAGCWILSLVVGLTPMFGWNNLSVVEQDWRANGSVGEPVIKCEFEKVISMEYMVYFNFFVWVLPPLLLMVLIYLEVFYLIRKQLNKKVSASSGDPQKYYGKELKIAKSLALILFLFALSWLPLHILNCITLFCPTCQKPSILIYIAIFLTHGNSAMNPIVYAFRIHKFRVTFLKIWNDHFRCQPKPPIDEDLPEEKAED
# Adenosine receptor A1 [3] = molecular target: T1, Adenosine receptor A1; assay: Inhibition of 1 nM [3H]- N6 -(phenylisopropyl) adenosine binding to Adenosine A1 receptor in rat fat cell membrane; format: cell-based
# Adenosine A2 receptor [4] = molecular target: Adenosine A2 receptor (Rattus norvegicus, UniProt P29276+P30543); conditions: pc-12
# Description: Inhibition of the stimulation by 5'-(N-ethylcarbamoyl) adenosine of adenyl cyclase via Adenosine A2 receptor in rat PC12 membranes
# Adenosine receptor A1 [5] = molecular target: T1, Adenosine receptor A1; assay: Inhibition of […] nM [3H]- N6- (phenylisopropyl) adenosine binding to Adenosine A1 receptor in rat cerebral cortical membranes; I = Inactive; format: cell membranes, Membrane
# Adenosine receptor A1 [6] = molecular target: T1, Adenosine receptor A1; assay: Inhibition of N6-(phenylisopropyl)adenosine-elicited inhibition of adenylate cyclase at Adenosine A1 receptor in rat fat cell membrane; I =inactive
# Adenosine receptor A1 [7] = molecular target: T1, Adenosine receptor A1; assay: Inhibition of N6-(phenylisopropyl)adenosine-elicited inhibition of adenylate cyclase at A1 adenosine receptor in rat fat cell membrane
# Adenosine receptor A1 [8] = molecular target: T1, Adenosine receptor A1; assay: Inhibition of […] nM [3H]- N6- (phenylisopropyl) adenosine binding to A1 adenosine receptor in rat cerebral cortical membranes; format: cell membranes, Membrane
# Adenosine receptor A1 [9] = molecular target: T1, Adenosine receptor A1; assay: Inhibition of […] nM [3H]- N6- (phenylisopropyl) adenosine binding to Adenosine A1 receptor
Compound,Ki (Adenosine A2 receptor [1]),Ki (Adenosine receptor A1 [2]),Ki (Adenosine receptor A1 [3]),Ki (Adenosine A2 receptor [4]),other results
Cn1c(=O)c2nc(-c3ccc(C(=O)O)cc3)[nH]c2n(C)c1=O,1500 nM,,,,
CCCn1c(=O)c2nc[nH]c2n(CCC)c1=O,,710 nM,1600 nM,,
CCCn1c(=O)c2[nH]c(-c3ccccc3)nc2n(CCC)c1=O,,,5.9 nM,,
CC(C)CCn1c(=O)c2nc(-c3ccccc3)[nH]c2n(CC(C)C)c1=O,2300 nM,,,,
CCCn1c(=O)c2c(nc(-c3ccc(S(=O)(=O)O)cc3)n2C)n(CCC)c1=O,2100 nM,15000 nM,4900 nM,5600 nM,
CC(C)CCn1c(=O)c2nc[nH]c2n(CC(C)C)c1=O,6500 nM,1600 nM,,,
CCCn1c(=O)[nH]c(=O)c2[nH]c(-c3ccccc3)nc21,11000 nM,9800 nM,,,
Cn1c(=O)c2c(nc(-c3ccc(C(=O)O)cc3)n2C)n(C)c1=O,150000 nM,61000 nM,,,
Cn1c(=O)c2c(nc(-c3ccc(S(=O)(=O)O)cc3)n2C)n(C)c1=O,57000 nM,,,150000 nM,Ki (Adenosine receptor A1 [5]): Not Active; Ki (Adenosine receptor A1 [6]): Not Active
Cn1c(=O)c2c(nc(-c3ccccc3)n2C)n(C)c1=O,14000 nM,15000 nM,,,
COC(=O)c1ccc(-c2nc3c(c(=O)n(C)c(=O)n3C)n2C)cc1,25000 nM,43000 nM,,,
CCCn1c(=O)[nH]c(=O)c2[nH]c(C3CCCCC3)nc21,1100 nM,850 nM,,,
CCCn1c(=O)c2c(nc(-c3ccc(C(=O)OC)cc3)n2C)n(CCC)c1=O,26000 nM,3100 nM,,,
CCCn1c(=O)c2c(nc(C3CCCCC3)n2C)n(CCC)c1=O,85 nM,,4200 nM,1000 nM,
CCCn1c(=O)c2c(nc(C3CCCC3)n2C)n(CCC)c1=O,220 nM,,,,
CCCn1c(=O)c2c(nc(-c3ccccc3)n2C)n(CCC)c1=O,2400 nM,2300 nM,,,

Compound,Ki (Adenosine A2 receptor [1]),Ki (Adenosine receptor A1 [2]),Ki (Adenosine receptor A1 [3]),Ki (Adenosine A2 receptor [4]),other results
CCCn1c(=O)[nH]c2[nH]c(-c3ccccc3)nc2c1=O,20 nM,67 nM,36 nM,73 nM,
CCCn1c(=O)c2c(nc(-c3ccc(C(=O)O)cc3)n2C)n(CCC)c1=O,13000 nM,4800 nM,,,
CCCn1c(=O)c2c(ncn2C)n(CCC)c1=O,2800 nM,3400 nM,12000 nM,5300 nM,
CC(C)CCn1c(=O)c2nc(-c3ccc(S(=O)(=O)O)cc3)[nH]c2n(CC(C)C)c1=O,520 nM,1200 nM,,,
CCCn1c(=O)[nH]c(=O)c2[nH]c(-c3ccc(C(=O)O)cc3)nc21,14000 nM,57000 nM,,,
CCCn1c(=O)[nH]c(=O)c2[nH]c(-c3ccc(S(=O)(=O)O)cc3)nc21,2700 nM,58000 nM,33000 nM,17000 nM,
Cn1c(=O)c2c(nc(C3CCCCC3)n2C)n(C)c1=O,190 nM,,,,
Cn1c(=O)c2nc(C3CCCCC3)[nH]c2n(C)c1=O,150 nM,110 nM,41 nM,450 nM,
CCCn1c(=O)c2nc(-c3ccc(S(=O)(=O)O)cc3)[nH]c2n(CCC)c1=O,1900 nM,140 nM,430 nM,11000 nM,
Cn1c(=O)c2c(nc(C3CCCC3)n2C)n(C)c1=O,2400 nM,33000 nM,14900 nM,3800 nM,
CCCn1c(=O)c2nc(-c3ccc(C(=O)O)cc3)[nH]c2n(CCC)c1=O,,200 nM,,,
Cn1c(=O)c2nc(-c3ccc(S(=O)(=O)O)cc3)[nH]c2n(C)c1=O,5500 nM,,,5000 nM,
Cn1c(=O)[nH]c2[nH]c(-c3ccccc3)nc2c1=O,860 nM,,,250 nM,Ki (Adenosine receptor A1 [7]): 130 nM; Ki (Adenosine receptor A1 [8]): 300 nM
Cn1c(=O)[nH]c2[nH]cnc2c1=O [1-METHYLXANTHINE],1900 nM,,,,Ki (Adenosine receptor A1 [9]): 17000 nM
Cn1c(=O)[nH]c(=O)c2[nH]cnc21 [3-METHYLXANTHINE],240000 nM,35000 nM,,,
Cn1c(=O)c2nc(-c3ccccc3)[nH]c2n(C)c1=O [8-PHENYL THEOPHYLLINE],1900 nM,,,1600 nM,
